In assay [1] the test system is depression. The note with it: after a single administration; cited from earlier work.
For assay [2], the system named is patients. Kind of assay: Clinical observations in treated patients. The assay is classed as in vivo, human. The text has this: It is imperative that patients get as quickly to the positive zone as possible. […] Anxiety is a major contributor to chronic inflammation, which decreases BDNF and the continued loss of synaptic connections.

Regarding `CNC1(c2ccccc2Cl)CCCCC1=O` (racemic) [ketamine, Ketamine (racemic)], in assay [1], the “begin of antidepressant effects post-infusion” value was 40 min, the “loss of superiority to placebo post-infusion” value is 10 to 12 days and the “peak of antidepressant effects” value was “approximately 24 h”. The “duration of positive effects of a series of infusions” value in assay [2] (IV ketamine alone, series of infusions (e.g., six)) is on record as “one month to several (e.g., 4-6) months”. Also, the “relief of anxiety compared with depression” value in assay [2] (patients, ketamine treatments alone) is listed as “a lot slower”.

On to `CC[C@H](C)[C@@H]1NC(=O)[C@H](Cc2ccc(O)cc2)NC(=O)[C@@H](N)CSSC[C@@H](C(=O)N2CCC[C@H]2C(=O)N[C@@H](CC(C)C)C(=O)NCC(N)=O)NC(=O)[C@H](CC(N)=O)NC(=O)[C@H](CCC(N)=O)NC1=O` [oxytocin], for which the “time the patient continued to stay sober” value in assay [2] (Patient 3 (alcoholic), patient attributes it to the addition of oxytocin) was 18 months. Moreover, the “response of the patient's anxiety with oxytocin compared with ketamine treatment alone” value in assay [2] (Patient 10 (PTSD, Depression, and Anxiety)) was “much quicker”. Also, in assay [2] (patients, addition of oxytocin treatment), the “recovery from anxiety compared with ketamine infusions alone” value is listed as “much quicker recovery”. Moreover, in assay [2] (patients, oxytocin before ketamine), the “ketamine experience when oxytocin is administered prior to the ketamine treatment” value is “much more calm and euphoric ketamine experience”. Also, in assay [2] (patients, oxytocin prior to ketamine treatment), the “recovery from depression and anxiety compared with ketamine alone” value is “recovering much more quickly”.

(Values after patent US20250099532A1, “METHODS OF TREATMENT USING OXYTOCIN” (Belnap Pharmaceuticals, LLC, priority 2022, published 2025).)
